In patent publication US10689394B2, “Thieno[2,3-b]pyridine derivative, quinoline derivative, and use thereof” (The University of Tokyo, priority 2016, dated 2020):

What follows are molecules tested against T1, binding between ALS-related mutant SOD1 (Flag-SOD1 G93A) and Derlin-1 (Derlin-1-HA) (Homo sapiens, UniProt P00441+Q9BUN8, G94A) (assay: Cell-based co-immunoprecipitation assay of mutant SOD1 (G93A)-Derlin-1 binding). Conditions: 0.625 μM, 1.25 μM, 2.5 μM and 5 μM added to HEK293A cell culture; FIG. 1.
T1 construct: expressed in transfected cells; host or cells: HEK293A
Parameters: key to Activity value (score): a compound exhibiting no inhibitory activity is set at 0; a compound exhibiting inhibitory activity is set at 1; a compound exhibiting significant inhibitory activity is set at 2; a compound having higher inhibitory activity than the compound of Example 1 is set at 3
Method: As cells, human embryonic kidney-derived, Human Embryonic Kidney 293A (HEK293A) cells were used. The cells were cultured in High Glucose Dulbecco's modified Eagle's medium (DMEM: 4.5 mg/ml glucose, Sigma) supplemented with complement-inactivated 10% fetal bovine serum (FBS, Vitromex) and 100 units/mL Penicillin G (Meiji), which was placed in an incubator set at conditions of 37° C. and 5% CO2.
Transfection into the HEK293A cells was carried out using PEI-Max (Polyscience) at a ratio of 3 μL of PEI-Max to 1 μg of plasmid. DMEM was mixed with PEI-Max, and the mixture was then left at rest for 5 minutes. Thereafter, the reaction mixture was added to the plasmid DNA dissolved in DMEM, and the thus obtained mixture was further left at rest for 15 minutes. After seeding, the culture was carried out for 12 to 24 hours, and the resultant was then added to a culture medium of cells, in which the medium had been exchanged with DMEM supplemented only with 10% FBS.
pcDNA3.0-Derlin-1-HA, pcDNA3.0-Flag-SOD1 G93A, and 123 types of other mutants.
In the lysis of HEK293A cells for use in a co-immunoprecipitation experiment, an IP lysis buffer (20 mM Tris-HCl (pH 7.5), 150 mM NaCl, 10 mM EDTA (pH 8.0), 1% Triton-X 100, 5 μg/mL leupeptin, and 1 mM phenylmethylsulfonyl fluoride) was used.
After the transfection on a 24-well plate, the cells were cultured for 12 hours or 24 hours, and the obtained cell culture was exchanged with 200 μL of medium. Thereafter, 1% DMSO or various types of compounds having each different concentration were added into the culture. Thirty-six hours or twenty-four hours later, the cells were incubated in the IP lysis buffer (300 μL/well) at 4° C. for 25 minutes, so that the cells were lysed. The cell lysate was centrifuged at 4° C. at 15000 rpm for 10 minutes, and a supernatant was then recovered. To this supernatant, Anti-Flag M2 affinity gel was added in a liquid amount of 20 μL, and they were allowed to react with each other by subjecting the obtained mixture to inversion mixing at 4° C. for 25 minutes. After completion of the reaction, a supernatant was removed, and the residue was washed twice with High salt wash buffer (1% Triton X 100, 500 mM NaCl, 20 mM Tris-HCl (pH 7.5), and 5 mM EGTA), and was then washed once with Low salt wash buffer (150 mM NaCl, 20 mM Tris-HCl (pH 7.5), and 5 mM EGTA). Finally, 50 μL of a 2×SDS sample buffer was added to the resultant, and the obtained mixture was then boiled at 98° C. for 3 minutes to obtain an SDS-PAGE sample. Regarding the lysate, a 2×SDS sample buffer was added in an amount equal to the supernatant, and the obtained mixture was then boiled at 98° C. for 3 minutes to obtain an SDS-PAGE sample.
After completion of SDS-PAGE, a protein was transferred from the gel into a polyvinylidene difluoride membrane (PVDF) ([…], Pall), and was then blocked with TBS-T (150 mM NaCl, 50 mM Tris-HCl (pH 8.0), and 0.05% Tween 20) supplemented with 5% skimmed milk at room temperature for 2 hours or more. Thereafter, a primary antibody diluted with TBS-T supplemented with 5% bovine serum albumin and 0.1% NaN3 was allowed to bind to each molecule on the PVDF membrane at 4° C. for 12 hours or more. After completion of the reaction, a secondary antibody (HRP-linked 2nd antibody) diluted with TBS-T supplemented with 5% skimmed milk was allowed to bind to the primary antibody at room temperature for 1 hour. Thereafter, the resultant was washed with TBS-T for 15 minutes, 3 or more times, and detection was then carried out using an enhanced chemiluminescence (ECL) system.
With regard to the compounds of the present invention (Example Compound 1 to Example Compound 47), whether or not the present compound can inhibit the binding between ALS-related mutant SOD1 and Derlin-1 in a cell by being added into a cell culture solution was examined according to a co-immunoprecipitation experiment. […]

T1 sequence (P00441 whole entry G94A, species assumed): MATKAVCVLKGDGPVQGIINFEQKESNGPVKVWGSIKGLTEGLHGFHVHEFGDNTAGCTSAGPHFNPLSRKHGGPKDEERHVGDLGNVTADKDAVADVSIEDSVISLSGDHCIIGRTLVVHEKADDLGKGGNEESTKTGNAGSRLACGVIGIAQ
T1 sequence (Q9BUN8 whole entry, species assumed, stated change not applied): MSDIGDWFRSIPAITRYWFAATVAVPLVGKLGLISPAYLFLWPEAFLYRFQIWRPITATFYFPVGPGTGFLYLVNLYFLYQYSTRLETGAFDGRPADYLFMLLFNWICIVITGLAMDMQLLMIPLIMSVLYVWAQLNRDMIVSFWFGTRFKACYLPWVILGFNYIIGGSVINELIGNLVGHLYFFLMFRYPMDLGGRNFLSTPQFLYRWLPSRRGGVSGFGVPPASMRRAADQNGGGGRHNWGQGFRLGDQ

SMILES	binding between mutant SOD1 and Derlin-1 (co-precipitated Derlin-1, IB:HA band)
Nc1c(C(=O)Nc2ccncc2)sc2nc(-c3cccnc3)ccc12 [Example 4, 3-amino-N-(4-pyridinyl)-6-(3-pyridinyl)thieno[2,3-b]pyridine-2-carboxamide]	the binding between mutant SOD1 and Derlin-1 was inhibited

Same assay, conditions: assay concentration 2.6 μM; HEK293A cells overexpressing Flag-SOD1 G93A and Derlin-1-HA

Activity value (score)	SMILES
1	Nc1c(C(=O)Nc2ccncc2)sc2nc(-c3ccccn3)ccc12 [Example 6, 3-amino-N-(4-pyridinyl)-6-(2-pyridinyl)thieno[2,3-b]pyridine-2-carboxamide]
1	Nc1c(C(=O)Nc2ccc(-c3cc(C(F)(F)F)cc(C(F)(F)F)c3)cc2)sc2nc(-c3ccncc3)ccc12 [Example 7]

Same assay, conditions: assay concentration 5 μM; HEK293A cells overexpressing Flag-SOD1 G93A and Derlin-1-HA

Activity value (score)	SMILES
2	Nc1c(C(=O)Nc2ccncc2)sc2nc(-c3cccnc3)ccc12 [Example 4, 3-amino-N-(4-pyridinyl)-6-(3-pyridinyl)thieno[2,3-b]pyridine-2-carboxamide]
1	C=CCN(C(=O)c1sc2nc(-c3ccncc3)ccc2c1N)c1cc(F)ccc1F [Example 8, N-allyl-3-amino-N-(2,5-difluorophenyl)-6-(4-pyridinyl)thieno[2,3-b]pyridine-2-carboxamide]
1	CC#CCN(C(=O)c1sc2nc(-c3cccnc3)ccc2c1N)c1ccccc1 [Example 9, 3-amino-N-(2-butynyl)-N-phenyl-6-(3-pyridinyl)thieno[2,3-b]pyridine-2-carboxamide]

Same assay, conditions: assay concentration 10 μM; HEK293A cells overexpressing Flag-SOD1 G93A and Derlin-1-HA

Activity value (score)	SMILES
2	C/C=C/CN(C(=O)c1sc2nc(-c3cccnc3)ccc2c1N)c1ccccc1 [Example 5, 3-amino-N-(trans-2-butenyl)-N-phenyl-6-(3-pyridinyl)thieno[2,3-b]pyridine-2-carboxamide]

Same assay, conditions: assay concentration 20 μM; HEK293A cells overexpressing Flag-SOD1 G93A and Derlin-1-HA

Activity value (score)	SMILES
2	C=CCN(C(=O)c1sc2nc(-c3cccnc3)ccc2c1N)c1ccc(I)cc1 [Example 12, N-allyl-3-amino-N-(4-iodophenyl)-6-(3-pyridinyl)thieno[2,3-b]pyridine-2-carboxamide]
2	CC(C)=CCN(C(=O)c1sc2nc(-c3cccnc3)ccc2c1N)c1ccccc1 [Example 13, N-(3-methyl-2-butenyl)-3-amino-N-phenyl-6-(3-pyridinyl)thieno[2,3-b]pyridine-2-carboxamide]
2	Nc1c(C(=O)N2CCCCc3ccccc32)sc2nc(-c3cccnc3)ccc12 [Example 14, [3-amino-6-(3-pyridinyl)thieno[2,3-b]2-pyridinyl](2,3,4,5-tetrahydro-1H-benzo[b]azepin-1-yl)methanone]
2	C=CCN(C(=O)c1sc2nc(-c3cccnc3)ccc2c1N)c1ccc(F)cc1F [Example 15, N-allyl-3-amino-N-(2,4-difluorophenyl)-6-(3-pyridinyl)thieno[2,3-b]pyridine-2-carboxamide]
2	C=CCN(C(=O)c1sc2nc(-c3cccnc3)ccc2c1N)c1cccc(F)c1F [Example 16, N-allyl-3-amino-N-(2,3-difluorophenyl)-6-(3-pyridinyl)thieno[2,3-b]pyridine-2-carboxamide]
2	C=CCN(C(=O)c1sc2nc(-c3cccnc3)ccc2c1N)c1cc(F)ccc1F [Example 17, N-allyl-3-amino-N-(2,5-difluorophenyl)-6-(3-pyridinyl)thieno[2,3-b]pyridine-2-carboxamide]
2	C=CCN(C(=O)c1sc2nc(-c3cccnc3)ccc2c1N)c1cc(F)ccc1C [Example 18, N-allyl-3-amino-N-(5-fluoro-2-methylphenyl)-6-(3-pyridinyl)thieno[2,3-b]pyridine-2-carboxamide]
2	C=CCN(C(=O)c1sc2nc(-c3ccncc3)ccc2c1N)c1ccc(F)c(F)c1 [Example 19, N-allyl-3-amino-N-(3,4-difluorophenyl)-6-(4-pyridinyl)thieno[2,3-b]pyridine-2-carboxamide]
2	C=CCN(C(=O)c1sc2nc(-c3cccnc3)ccc2c1N)c1cc(F)cc(F)c1 [Example 20, N-allyl-3-amino-N-(3,5-difluorophenyl)-6-(3-pyridinyl)thieno[2,3-b]pyridine-2-carboxamide]
2	C=CCN(C(=O)c1sc2nc(-c3cccnc3)ccc2c1N)c1cccc(S(F)(F)(F)(F)F)c1 [Example 21, N-allyl-3-amino-N-(3-(pentafluoro-λ^6-sulfanyl)phenyl)-6-(3-pyridinyl)thieno[2,3-b]pyridine-2-carboxamide]
2	C=CCN(C(=O)c1sc2nc(-c3ccncc3)ccc2c1N)c1cc(F)cc(F)c1 [Example 22, N-allyl-3-amino-N-(3,5-difluorophenyl)-6-(4-pyridinyl)thieno[2,3-b]pyridine-2-carboxamide]
2	C=CCN(C(=O)c1sc2nc(-c3ccncc3)ccc2c1N)c1cccc(S(F)(F)(F)(F)F)c1 [Example 23, N-allyl-3-amino-N-(3-(pentafluoro-λ^6-sulfanyl)phenyl)-6-(4-pyridinyl)thieno[2,3-b]pyridine-2-carboxamide]
1	Nc1c(C(=O)Nc2cccc3ccccc23)sc2nc(-c3cccnc3)ccc12 [Example 24]
1	Cc1cccc(C)c1NC(=O)c1sc2nc(-c3cccnc3)ccc2c1N [Example 25, 3-amino-N-(2,6-dimethylphenyl)-6-(3-pyridinyl)thieno[2,3-b]pyridine-2-carboxamide]
1	Nc1c(C(=O)Nc2ccc(OCc3ccccc3)cc2)sc2nc(-c3cccnc3)ccc12 [Example 26, 3-amino-N-[4-(benzyloxy)phenyl]-6-(3-pyridinyl)thieno[2,3-b]pyridine-2-carboxamide]
1	Nc1c(C(=O)Nc2ccc(I)cc2)sc2nc(-c3cccnc3)ccc12 [Example 27, 3-amino-N-(4-iodophenyl)-6-(3-pyridinyl)thieno[2,3-b]pyridine-2-carboxamide]

Continued, molecule first:

SMILES	Activity value (score)
C#CCCCOCC=CCN(C(=O)c1sc2nc(-c3cccnc3)ccc2c1N)c1ccccc1 (stereo in doubt) [Example 38, 3-amino-N-((E)-4-(pent-4-ynyloxy)but-2-enyl)-N-phenyl-6-(3-pyridinyl)thieno[2,3-b]pyridine-2-carboxamide]	2
C#CCN(C(=O)c1sc2nc(-c3cccnc3)ccc2c1N)c1ccccc1 [Example 2, N-propargyl-3-amino-N-phenyl-6-(3-pyridinyl)thieno[2,3-b]pyridine-2-carboxamide]	2
Nc1c(C(=O)N2CCCc3ccccc32)sc2nc(-c3cccnc3)ccc12 [Example 3, (3-Amino-6-(3-pyridinyl)thieno[2,3-b]2-pyridinyl)(3,4-dihydro-1(2H)-quinolyl)methanone]	2
CCCN(C(=O)c1sc2nc(-c3cccnc3)ccc2c1N)c1ccccc1 [Example 10, N-n-propyl-3-amino-N-phenyl-6-(3-pyridinyl)thieno[2,3-b]pyridine-2-carboxamide]	2
CCCN(C(=O)c1sc2nc(-c3cccnc3)ccc2c1N)c1ccc(F)c(F)c1F [Example 11, N-n-propyl-3-amino-N-(2,3,4-trifluorophenyl)-6-(3-pyridinyl)thieno[2,3-b]pyridine-2-carboxamide]	2
